For experiment [1], the system named is mouse melanoma cancer cell line (B16). The experiment is described as follows: In vitro cytotoxicity, MTT assay, 48 h continuous drug exposure. In kind it is cell-based. Particulars: B16 cells, 48 h exposure. Here is the method: (§1) In vitro biological activity studies were carried out at the pharmacology division, IICT, Hyderabad. The compounds were evaluated for in vitro anticancer activity against five tumour cell lines derived from five cancer types (breast, cervix, mouse melanoma, lung and liver cancer) as shown in Table 2. For each compound, dose response curves for each cell line were measured at a minimum of five concentrations at 10 fold dilutions. A protocol of 48 h continuous drug exposure was used and a MTT assay was used to estimate cell viability or growth. The concentration causing 50% inhibition (IC50) compared with the control was calculated. Compounds 7a-7l have been evaluated for their in vitro cytotoxicity in five cell lines from five human cancer types. The results are expressed as IC50 determined relative to that of untreated control cells (Table-2).
Background: Formazan colour is commonly taken as a measure of viable cells.

For experiment [2], the system named is lung cancer cell line (A549). The description is as above. In kind it is cell-based, human. Particulars: A549 cells, 48 h exposure. The procedure: as §1
In experiment [3] the test system is liver cancer cell line (Hepg2). The description is as above. In kind it is cell-based, human. Particulars: Hepg2 cells, 48 h exposure. The procedure:
as §1

Experiment [4] relates to cervical cancer cell line (Hela). The experiment is described as above. In kind it is cell-based, human. Particulars: Hela cells, 48 h exposure. Here is the method:
as §1

For experiment [5], the system named is breast cancer cell line (MCF-7). The experiment is described as above. The format is cell-based, human. Particulars: 48 h exposure. The procedure:
as §1

In a further experiment the test system is calf thymus DNA (CT-DNA). The experiment is described as follows: Thermal denaturation studies with duplex-form calf thymus DNA (DNA binding affinity). To be noted: [PBD]:[DNA] molar ratio 1:5, CT-DNA 100 μM, ligand 20 μM, sodium phosphate buffer pH 7.00; for (ΔTm ° C.) after incubation at 37° C. for 0 h: 0 h incubation at 37° C.; for (ΔTm ° C.) after incubation at 37° C. for 18 h: 18 h incubation at 37° C. Here is the method:
Compounds have been subjected to thermal denaturation studies with duplex-form calf thymus DNA (CT-DNA) using a modification of a reported procedure (Newman, M. S. Carcinog-compr. Surv. 1976, 1, 203; (b) Hecht, S. S.; Loy, M.; Hoffman, Carcinog-compr. Surv. 1976, 1, 325). Working solutions in aqueous buffer (10 mM NaH2PO4/Na2HPO4, 1 mM Na2EDTA, pH 7.00+0.01) containing CT-DNA (100 μm in phosphate) and the PBD (20 μm) have been prepared by addition of concentrated PBD solutions in DMSO to obtain a fixed [PBD]/[DNA] molar ratio of 1:5. The DNA-PBD solutions have been incubated at 37° C. for 0 and 18 h prior to analysis. Samples have been monitored at 260 nm using a Beckman DU-800 spectrophotometer fitted with high performance temperature controller, and heated at 1° C. min^−1 in the 40-110° C. range. DNA helix→coil transition temperatures (Tm) have been obtained from the maxima in the d(A260)/dT derivative plots. Drug-induced alterations in DNA melting behavior are given by: ΔTm=Tm(DNA+PBD)−Tm(DNA alone), where the Tm value for the PBD-free CT-DNA is 69.1±0.01.
The DNA binding activity for these novel C8-linked imidazo[1,5-a]pyridine PBD hybrids has been examined by thermal denaturation studies using calf thymus (CT) DNA. […] The data for the compounds 7a-l is included in Table 1 for comparison.

Where [6] appears, read: Homo sapiens, MCF7, MCF-7 cells.

Turning to `COc1cccc2c1C(=O)c1c(O)c3c(c(O)c1C2=O)C[C@@](O)(C(=O)CO)C[C@@H]3O[C@H]1C[C@H](N)[C@H](O)[C@H](C)O1` [ADR, adiramycin], the IC50 in experiment [1] came out at 340 nM; in experiment [2] it was 2.9 µM; in experiment [3], 1850 nM; in experiment [4], 130 nM; in experiment [5] (MCF-7 cells), 1600 nM.

On to `C1=CC2=CN=c3ccccc3=CN2C1` [DC-81, pyrrolo[2,1-c][1,4]benzodiazepine], for which the IC50 was 1830 nM in experiment [1] (Mus musculus); 0.38 µM in experiment [2] (Homo sapiens); 2200 nM in experiment [3] (Homo sapiens, HepG2, 48 h); 2140 nM in experiment [4] (Homo sapiens, HeLa, 48 h); 2190 nM in experiment [5] (setting [6]). In the experiment on calf thymus DNA (CT-DNA), the “(ΔTm ° C.) after incubation at 37° C. for 0 h” value was found to be 0.3 °C. For the same compound, in the experiment on calf thymus DNA (CT-DNA), the “(ΔTm ° C.) after incubation at 37° C. for 18 h” value is 0.7 °C.

On to `O=C(c1nc(-c2ccc(C(F)(F)F)cc2)n2ccccc12)N1CCNCC1` [4c, piperazino3-[4-(trifluoromethyl)phenyl]imidazo[1,5-a]pyridin-1-ylmethanone], for which the IC50 in experiment [1] (Mus musculus) was more than 100000 nM; in experiment [2] (Homo sapiens) it was more than 100 µM; in experiment [3] (Homo sapiens), more than 100000 nM; in experiment [4] (Homo sapiens), more than 100000 nM; in experiment [5] (setting [6]), more than 100000 nM. Also, the “(ΔTm ° C.) after incubation at 37° C. for 0 h” value with calf thymus DNA (CT-DNA) stood at 0.1 °C. Besides, the “(ΔTm ° C.) after incubation at 37° C. for 18 h” value in the experiment with calf thymus DNA (CT-DNA) was found to be 0.4 °C.

Turning to `COc1cc2c(cc1OCCCCN1CCN(C(=O)c3nc(-c4ccccc4)n4ccccc34)CC1)N=C[C@@H]1CCCN1C2=O` [7b, (11aS)-7-methoxy-8-(4-4-[(3-phenylimidazo[1,5-a]pyridin-yl)carbonyl]piperazinobutoxy)-2,3,5,11a-tetrahydro-1H-benzo[e]pyrrolo[1,2-a]azepin-5-one], the half-inhibitory concentration (IC50) in experiment [1] (Mus musculus) stood at 2670 nM; in experiment [2] (Homo sapiens), 15.9 µM; in experiment [3] (Homo sapiens, HepG2, 48 h), 2830 nM; in experiment [4] (Homo sapiens, HeLa, 48 h), 1240 nM; in experiment [5] (setting [6]), 2870 nM. Besides, in the experiment with calf thymus DNA (CT-DNA), the “(ΔTm ° C.) after incubation at 37° C. for 0 h” value worked out at 6.0 °C. In addition, in the experiment on calf thymus DNA (CT-DNA), the “(ΔTm ° C.) after incubation at 37° C. for 18 h” value is 8.9 °C.

With `O=C(c1nc(-c2ccccc2)n2ccccc12)N1CCNCC1` [4a, (3-phenylimidazo[1,5-a]pyridin-1-yl)(piperazino)methanone], the IC50 was more than 100000 nM in experiment [1] (Mus musculus); more than 100 µM in experiment [2] (Homo sapiens); more than 100000 nM in experiment [3] (Homo sapiens); more than 100000 nM in experiment [4] (Homo sapiens); more than 100000 nM in experiment [5] (setting [6]). Further, the “(ΔTm ° C.) after incubation at 37° C. for 0 h” value in the experiment with calf thymus DNA (CT-DNA) was found to be 1.0 °C. The “(ΔTm ° C.) after incubation at 37° C. for 18 h” value in the experiment with calf thymus DNA (CT-DNA) was determined as 1.2 °C.

Take `COc1cc2c(cc1OCCCN1CCN(C(=O)c3nc(-c4ccccc4)n4ccccc34)CC1)N=C[C@@H]1CCCN1C2=O` [7a, (11aS)-7-methoxy-8-(3-4-[(3-phenylimidazo[1,5-a]pyridin-yl)carbonyl]piperazinopropoxy)-2,3,5,11a-tetrahydro-1H-benzo[e]pyrrolo[1,2-a]azepin-5-one]: the IC50 came to 2800 nM in experiment [1] (Mus musculus); 7.1 µM in experiment [2] (Homo sapiens); 2700 nM in experiment [3] (Homo sapiens, HepG2, 48 h); 2100 nM in experiment [4] (Homo sapiens, HeLa, 48 h); 1200 nM in experiment [5] (setting [6]). Moreover, the “(ΔTm ° C.) after incubation at 37° C. for 0 h” value in the experiment with calf thymus DNA (CT-DNA) came out at 6.0 °C. Besides, in the experiment with calf thymus DNA (CT-DNA), the “(ΔTm ° C.) after incubation at 37° C. for 18 h” value came to 8.9 °C.

On to `COc1cc2c(cc1OCCCCCCN1CCN(C(=O)c3nc(-c4ccccc4)n4ccccc34)CC1)N=C[C@@H]1CCCN1C2=O` [7d], for which the IC50 in experiment [1] (Mus musculus) came out at 1490 nM; in experiment [2] (Homo sapiens), 12.4 µM; in experiment [3] (Homo sapiens, HepG2, 48 h), 3060 nM; in experiment [4] (Homo sapiens, HeLa, 48 h) it was 3970 nM; in experiment [5] (setting [6]), 3310 nM. Moreover, the “(ΔTm ° C.) after incubation at 37° C. for 0 h” value in the experiment on calf thymus DNA (CT-DNA) is 7.0 °C. For the same compound, the “(ΔTm ° C.) after incubation at 37° C. for 18 h” value in the experiment on calf thymus DNA (CT-DNA) came out at 8.0 °C.

`COc1cc2c(cc1OCCCCCN1CCN(C(=O)c3nc(-c4ccccc4)n4ccccc34)CC1)N=C[C@@H]1CCCN1C2=O` [7c]: the IC50 is 1870 nM in experiment [1] (Mus musculus); 3860 nM in experiment [3]; 2700 nM in experiment [3] (Homo sapiens, HepG2, 48 h); 1660 nM in experiment [4] (Homo sapiens, HeLa, 48 h); 2120 nM in experiment [5] (setting [6]). In the experiment on calf thymus DNA (CT-DNA), the “(ΔTm ° C.) after incubation at 37° C. for 0 h” value is 7.0 °C. The “(ΔTm ° C.) after incubation at 37° C. for 18 h” value with calf thymus DNA (CT-DNA) turned out to be 9.0 °C.

Take `COc1ccc(-c2nc(C(=O)N3CCNCC3)c3ccccn23)cc1` [4b, [3-(4-methoxyphenyl)imidazo[1,5-a]pyridin-1-yl](piperazino)methanone]: the IC50 is more than 100000 nM in experiment [1] (Mus musculus); more than 100 µM in experiment [2] (Homo sapiens); more than 100000 nM in experiment [3] (Homo sapiens); more than 100000 nM in experiment [4] (Homo sapiens); more than 100000 nM in experiment [5] (setting [6]). For the same compound, the “(ΔTm ° C.) after incubation at 37° C. for 0 h” value in the experiment with calf thymus DNA (CT-DNA) came out at 1.1 °C. Further, the “(ΔTm ° C.) after incubation at 37° C. for 18 h” value in the experiment with calf thymus DNA (CT-DNA) is 1.2 °C.

As a reminder, the IC50 is the concentration at which inhibition is half-maximal. Read a high IC50 as weaker potency.

The values above are taken from patent publication US8519123B2, “Pyrrolo[2,1-C][1,4]benzodiazepine linked imidazo[1,5-A]pyridine conjugates as potential antitumour agents and process for the preparation thereof” (Council of Scientific and Industrial Research, priority 2010, dated 2013).
